PMC11435438, “Cyclin-Dependent Kinase 8 Represents a Positive Regulator of Cytomegalovirus Replication and a Novel Host Target for Antiviral Strategies” (Pharmaceutics, 2024)

Tests used:
[1] = test system: KSHV rKSHV.219-GFP; assay: KSHV lytic replication assay in iSLK.219 cells; assay type: cell-based, Kaposi's sarcoma-associated herpesvirus; settings: Human gammaherpesvirus 8, read-out: EC50 KSHV
Procedure: (§1) Primary human foreskin fibroblasts (HFFs; obtained from clinical samples at Children’s Hospital in Erlangen, Germany), guinea pig embryonic fibroblasts (GPEFs; generously provided by Mark R. Schleiss from the University of Minnesota in Minneapolis, MN, USA), and rat embryonic fibroblasts were cultivated in Eagle’s Minimal Essential Medium (MEM) supplemented with 1 × GlutaMAX™ (both from Thermo Fisher Scientific, Waltham, MA, USA), 10 µg/mL gentamicin, and 10% fetal bovine serum (FBS; Capricorn, Ebsdorfergrund, Germany). Human glioblastoma–astrocytoma cell line (U373) and mouse embryonic fibroblasts (MEFs), both obtained from ATCC (Manassas, VA, USA), and Vero cell sublineage 76 [26], were cultivated in Dulbecco’s modified Eagle’s medium (DMEM) supplemented with 1 × GlutaMAX™, 10 µg/mL gentamicin, and 10% fetal bovine serum. All cultured cells were maintained under the conditions of 37 °C temperature, 5% CO2, and 80% humidity. The regular monitoring for the absence of mycoplasma contamination was conducted using Lonza™ Mycoalert™ (Thermo Fisher Scientific, Waltham, MA, USA). Cultured cell-based viral replication assays were performed by the use of the HCMV strain AD169 (variant U.K.), the recombinant HCMVs AD169-GFP expressing green fluorescent protein [27], TB40 IE2-YFP and TB40-FLuc expressing an IE2-YFP fusion protein or firefly luciferase (FLuc), and Merlin-GFP [31]. […]
(§2) A variety of antiherpesviral and non-herpesviral drug activities were assessed by the cell culture-based viral replication systems, as described elsewhere. […] After incubation at 37 °C for 3 days, iSLK.219 cells were fixed with 10% formalin, washed with PBS, and used for a quantitation of RFP reporter signal by PicoMD counting (ImageXpress® Pico device, Molecular Devices LLC, San Jose, CA, USA). […]

[2] = test system: HAdV species C5 DBP-mneongreen; assay: HAdV replication assay in A549 cells; assay type: cell-based; settings: Human adenovirus sp., A549, read-out: EC50 HAdV
Procedure: as §1, §2

[3] = test system: HCMV TB40-YFP; assay: HCMV TB40-YFP replication assay in U373 cells; assay type: cell-based, human cytomegalovirus; settings: Human betaherpesvirus 5, U373 MG, read-out: EC50 TB40-YFP
Procedure: (i.e., 1 × TCID25/7d). Immediately after virus adsorption, the cells were treated with antiviral compounds or solvent control (DMSO). Infections were performed in biological quadruplicates, or as indicated for individual experiments. The cells were fixed by the addition of 150 µL 10% formalin/well 7 d p.i. (Merlin-GFP 14 d p.i.), and washed with PBS. For GFP or YFP quantitation, the Victor X4 microplate reader (PerkinElmer, Waltham, MA, USA) was primarily used, or as a very sensitive alternative, the ImageXpress® Pico device (Molecular Devices LLC, San Jose, CA, USA). Mean EC50 values of antiviral efficacy were calculated on the basis of three experimental replicates or as indicated (measurement of fluorescence values in quadruplicate), and percentage values were provided relative to the solvent control (DMSO).

Question: How did the EC50 [1] turn out when `CN(C)C(=O)Cn1cc(-c2ccc(-c3cncc4ccccc34)cc2)cn1` [BI-1347] was run?
Answer: 310 ± 610 nM

Question: And the EC50 [2]?
Answer: 50 ± 110 nM

Question: What about the EC50 [3] of the same compound?
Answer: 19.3 ± 21 nM

Question: `Cn1ncc2cc(-c3cnc(N)c(Cl)c3N3CCC4(CCNC4=O)CC3)ccc21` [CCT-151921] was tested. Which EC50 [1] did it give?
Answer: 300 nM

Question: And the EC50 [2]?
Answer: 30 ± 30 nM

Question: And the EC50 [3]?
Answer: 8.5 ± 11.1 nM

Question: With `Cc1n[nH]c2ncc(C(=O)N3CCC[C@H]3c3ccc(Cl)cc3)cc12` [MSC-2530818] as the compound, how does the EC50 [1] read?
Answer: > 40000 nM

Question: And the EC50 [2]?
Answer: 340 ± 260 nM

Question: And the EC50 [3]?
Answer: 12.3 ± 11.3 nM
